Data taken from PMC4434051, “Biological evaluation of new potential anticancer agent for tumour imaging and radiotherapy by two methods: ^99mTc-radiolabelling and EPR spectroscopy” (Biotechnology, Biotechnological Equipment, 2014).

Tests used:
[1] = cited from earlier work; for half-life: formerly reported
[2] = EPR organ and blood distribution of SLENU after i.p. administration; format: in vivo, male albino non-inbred mice; conditions: i.p. 40 mg/kg
Procedure: For EPR experiments of SLENU (administrated i.p. at a dose of 40 mg/kg) blood samples were taken from the free-streaming blood of a male albino non-inbred mice and were collected into heparinized tubes containing PBS (pH = 7–7.4). […] Decay-corrected radioactivity in the blood was expressed as per cent injected dose in the blood, using the total blood volume as 7% of the body weight. Animal protocols have been approved by the Bulgarian/Indian Institutional Animals ethics Committee.
First biodistribution study for EPR experiments of SLENU in organ homogenates (liver, lungs, spleen, pancreas, brain, kidneys) and blood was evaluated in male albino non-inbred mice (35–40 g body weight, normal diet) as previously described by. Spin-labelled nitrosourea was administrated i.p. at a dose of 40 mg/kg. Animals were decapitated at appropriate time points following injection (10, 30, 60, 90 min and on 4 h, 24 h) and dissected. Tissues from lungs, liver, spleen, brain, kidneys, pancreas and blood were collected and processed immediately. For nitrosourea extraction, samples were weighed and homogenized in PBS (10% w/v) and centrifuged at 2000 g for 15 min. Supernatants were collected and the concentration of nitrosourea was evaluated by EPR spectroscopy. Before measuring the spin-labelled concentration, the samples were […] by K3[Fe(CN6)] (a spectroscopic broadening reagent), because of the fast reduction of the nitroxide function (10–20 min) in the tissues.

[3] = cited from earlier work
[4] = cited from earlier work; remark: listed apart in the source
[5] = system: Lymphoma L1210; parameters: method as in PMID 19081996, PMID 19718801, PMID 20097958; conditions: C57BL/Lymphoma L1210 bearing mice; cited from earlier work

| Structure (SMILES) | half-life [1] | time of maximum concentration in blood (EPR) ([2]; blood) | time of maximum concentration in brain (EPR) ([2]; brain homogenate) | time of maximum concentration in kidneys (EPR) ([2]; kidneys homogenate) | time of maximum concentration in liver (EPR) ([2]; liver homogenate) | time of maximum concentration in lungs (EPR) ([2]; lungs homogenate) | time of maximum concentration in pancreas (EPR) ([2]; pancreas homogenate) | time of maximum concentration in spleen (EPR) ([2]; spleen homogenate) | presence of spin-labelled nitrosourea in tissues (EPR) ([2]; within 24 h, all tissues studied) | τ0.5 [1] | carbamoylating activity ([3]; EPR research) | carbamoylating activity relative to CCNU ([3]; formerly reported) | alkylating activity [4] | alkylating activity relative to CCNU ([4]; formerly reported) | optimal dose for anticancer activity [5] |
| --- | --- | --- | --- | --- | --- | --- | --- | --- | --- | --- | --- | --- | --- | --- | --- |
| O=NN(CCCl)C(=O)NC1CCCCC1 [CCNU, 1-(2-chloroethyl)-3-cyclohexyl-1-nitrosourea, reference compound] | 0.9 h | – | – | – | – | – | – | – | – | – | – | – | – | – | – |
| CCN(N=O)C(=O)NC1CC(C)(C)N([O])C(C)(C)C1 [SLENU, 1-ethyl-1-nitroso-3-[4-(2,2,6,6-tetramethylpiperidine-1-oxyl)]-urea] | 1.25 h | 60 min | 60 min | 60 min | 90 min | 30 min | 60 min | 60 min | complete absence | 75 min | 54.46 ± 0.17 | high and comparable with that of CCNU | 0.008 A560/mmol/L/h | lower than that of CCNU | 45 mg/kg |
